US9757399B2, “Butyrylcholinesterase inhibitors” (priority 2006, dated 2017)
Several values for one entry are separate records, joined by “and”; a condition that tells them apart may be missing. Identical values can stand only once. Like-named read-outs stand apart in the source and are kept apart here.

What was measured:
[1] = target: T1, Acetylcholinesterase (from electric eel) (Electrophorus electricus, UniProt O42275); test: Acetylcholinesterase activity, Ellman assay after pre-incubation with inhibitor; type: biochemical; conditions: 100 μM compound, 60 minutes at 25° C.; read-out: % Activity ± SD (acetylcholinesterase activity relative to enzyme incubated with solvent)
T1 construct: Acetylcholinesterase (from electric eel); purchased Sigma; host or cells: electric eel (natural source)
Experimental: Acetylcholinesterase (from electric eel), butyrylcholinesterase (from horse serum), DTNB, butyrylthiocholine, acetylthiocholine, and BSA were purchased from Sigma. The dialkyl 2-chlorophenyl (and 4-chlorophenyl) phosphates were solubilized in reagent grade methanol.
Cholinesterase activity measurements were performed essentially according to the method of Ellman (Biochemical Pharmacology 7:88-90, 1961). The composition of the assay mixture was 0.1 M sodium phosphate, pH 7.5, 0.033 M DTNB, 0.001 M MgCl2, and 100 μg/mL of BSA containing appropriate amounts of substrate and inhibitor. Each assay was initiated by the addition of substrate and the activity quantified by measuring the formation of the thionitrobenzoate anion at 412 nm at 37° C. Methanol used to solubilize the dialkyl phenyl phosphates [1% (v/v) final concentration] had no inhibitory effect on either enzyme.
Butyrylcholinesterase was pre-incubated at room temperature with inhibitor in the assay cocktail minus substrate for varying periods of time at 25° C. Substrate was then added and the activity measured as described above. The relative rates of enzyme inactivation were determined by plotting enzyme activity versus time of pre-incubation with inhibitor. Results were expressed as the rate constant for the rate of enzyme inactivation. In the case of AcChase, results were expressed as the % of activity remaining relative to the enzyme incubated only with solvents.
The first series of experiments determined the effect of the dialkyl 2-chlorophenyl (and 4-chlorophenyl) phosphates on both AcChase and BuChase. None of the compounds had any inhibitory effect on AcChase (See Table 1). In Table 1, AcChase was incubated with 100 μM of the indicated phenyl phosphate for 60 minutes at 25° C. and then assayed as described above. Results were expressed as the % activity relative to enzyme incubated with solvent ±SD (standard deviation).

human umbilical cells = type: in vitro ADME
Experimental: Also, the uptake of di-n-butyl-2-chlorophenyl phosphate by human umbilical cells was measured after […] for both undifferentiated cells and differentiating neurons. (Table 6)

trypsin = test: Trypsin activity (BAEE hydrolysis); type: biochemical; conditions: 10 μM, 60 minutes at 25° C.
Experimental: The effect of DB2ClPP (di-n-butyl 2-chlorophenyl phosphate) on the activity of trypsin was assayed. Trypsin was incubated with solvent, 10 μM DB2CPP, or 10 μM DIFP (a known inhibitor of trypsin) for 60 minutes at 25° C. to determine any inhibitory effect of DB2CPP on enzymatic activity. Enzyme activity is given as nmoles of BAEE hydrolyzed per minute at 25° C. Data shown are the mean of three replicates ±SEM. (FIG. 3)

[2] = system: porcine umbilical stem cells; type: in vitro ADME
Experimental: In addition, uptake of di-n-butyl-2-chlorophenyl phosphate by porcine umbilical stem cells was measured after 24 and 48 hours of culture (Table 5).

[3] = type: in vivo, male Long-Evans rats; conditions: rat, intraperitoneal 0.2 mL of 10 mg/mL in DMSO, 30 minutes, brain tissue (1.5 g), GC/MS; one value per animal
Experimental: An animal study using two groups (n=7/group) of male Long-Evans rats (200-225 g, Charles River, Portage, Mich.) was conducted to determine whether DB2ClPP crosses the blood brain barrier. DB2ClPP was dissolved in dimethyl sulfoxide (DMSO). Rats were injected intraperitoneally with either 0.2 mL DMSO (vehicle control) or 0.2 mL of a 10 mg/mL solution of DB2ClPP with DMSO as solvent. Thirty minutes after DB2ClPP treatment, animals were deeply anesthetized with isoflurane and then decapitated. Brains were removed quickly, rinsed in ice cold phosphate buffer saline (pH 7.4) and block dissected and flash frozen in liquid nitrogen and stored at −80° C. until assayed.
The tissue from two animals injected with DB2ClPP were processed as follows: i) brain tissue (1.5 g) was allowed to thaw on ice in a Dounce homogenizer; ii) 10 mL of methylene chloride was added and the tissue extracted with 20 strokes of the loose fitting pestle. The homogenate was clarified by centrifugation and the supernatant extracted three times with methylene chloride using a separatory funnel. The organic phase was collected, pooled, and dried over magnesium sulfate. The eluate was then concentrated down to a volume of approximately 200 μl under nitrogen and analyzed by GC/MS for the presence of the DB2ClPP. A solution of neat DB2ClPP served as control. The DB2ClPP was present in both samples. […]

S6K2 = S6K2 (Homo sapiens, UniProt Q9UBS0); test: S6K2 activity (GST-S6 substrate, Pro-Q stain); type: biochemical; conditions: varying concentrations, 30 minutes on ice, then ATP 30° C. 15 minutes
Experimental: For protein kinase activity, histone was used as the substrate for protein kinase A (PKA) and glutathione-S-transferase-S6 (GST-S6) for S6K2. Enzyme was pre-incubated with substrate and varying concentrations of inhibitor on ice for 30 minutes. The control sample contained solvent (methanol). ATP was then added to each sample and the cocktail incubated at 30° C. for 15 minutes. Equal amounts of each mixture were fractionated by SDS-PAGE on a 10% acrylamide gel. The gel was fixed in 50% methanol/10% acetic acid, washed with water, and then stained in Pro-Q Stain in the dark for 60 minutes. The gel was then destained, washed, and scanned on a Typhoon Imager (FIG. 5).

[4] = system: porcine umbilical stem cells; type: cell-based; conditions: increasing concentrations, 48 hours, Neurobasal Medium
Experimental: Porcine umbilical stem cells were cultured in Neurobasal Medium supplemented with B27 (Invitrogen) and antibiotics for various periods of with varying concentrations of di-n-butyl-2-chlorophenyl phosphate. Cells were collected, washed, counted, and analyzed for viability by Trypan Blue staining.

BuChase = target: T2, BuChase (Equus caballus, UniProt P81908); test: MALDI-TOF of tryptic peptides of inhibitor-treated BuChase
T2 construct: butyrylcholinesterase (from horse serum); purchased Sigma; host or cells: horse serum (natural source)
Experimental: BuChase was incubated with di-n-butyl-2-chlorophenyl phosphate. Excess inhibitor was removed and the enzyme was digested with trypsin. The tryptic peptides were then analyzed by MALDI-TOF. Unmodified peptide containing the active site serine (MW 2198.86) and modified peptide (MW 2390.9060) can be seen. […] Irreversible inhibitors usually covalently modify an enzyme, and inhibition cannot therefore be reversed.

S6K2, sequence (Q9UBS0 whole entry, looked up): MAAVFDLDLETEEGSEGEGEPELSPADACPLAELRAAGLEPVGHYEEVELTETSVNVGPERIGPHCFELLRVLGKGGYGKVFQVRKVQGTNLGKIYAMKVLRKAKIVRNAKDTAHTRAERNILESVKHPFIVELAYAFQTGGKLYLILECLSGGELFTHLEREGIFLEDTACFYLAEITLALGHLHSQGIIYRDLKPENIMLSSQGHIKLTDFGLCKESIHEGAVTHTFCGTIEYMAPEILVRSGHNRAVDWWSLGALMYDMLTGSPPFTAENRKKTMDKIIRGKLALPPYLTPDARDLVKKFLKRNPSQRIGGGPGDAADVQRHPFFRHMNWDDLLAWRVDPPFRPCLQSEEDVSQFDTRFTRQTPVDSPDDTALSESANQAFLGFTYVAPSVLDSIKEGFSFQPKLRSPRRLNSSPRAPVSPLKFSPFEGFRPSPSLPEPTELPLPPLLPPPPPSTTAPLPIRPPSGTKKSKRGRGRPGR
T1 sequence (O42275 24-633): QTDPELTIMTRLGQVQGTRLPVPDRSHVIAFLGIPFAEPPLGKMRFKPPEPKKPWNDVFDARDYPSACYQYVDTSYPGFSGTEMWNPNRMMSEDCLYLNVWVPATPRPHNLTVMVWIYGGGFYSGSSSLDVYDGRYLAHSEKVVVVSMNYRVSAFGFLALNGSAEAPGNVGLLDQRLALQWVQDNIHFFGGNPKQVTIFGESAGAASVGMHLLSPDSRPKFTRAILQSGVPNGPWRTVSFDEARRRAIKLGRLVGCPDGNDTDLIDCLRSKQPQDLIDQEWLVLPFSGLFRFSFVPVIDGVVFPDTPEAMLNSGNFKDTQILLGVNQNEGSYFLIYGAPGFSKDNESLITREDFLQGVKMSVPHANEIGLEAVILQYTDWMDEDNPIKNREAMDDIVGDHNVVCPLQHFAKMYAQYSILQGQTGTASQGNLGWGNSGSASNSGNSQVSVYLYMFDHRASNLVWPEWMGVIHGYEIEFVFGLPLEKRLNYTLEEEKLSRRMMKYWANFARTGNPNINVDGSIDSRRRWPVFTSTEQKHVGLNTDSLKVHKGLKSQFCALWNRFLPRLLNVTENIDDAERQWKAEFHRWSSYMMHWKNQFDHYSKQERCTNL
T2 sequence (P81908 whole entry): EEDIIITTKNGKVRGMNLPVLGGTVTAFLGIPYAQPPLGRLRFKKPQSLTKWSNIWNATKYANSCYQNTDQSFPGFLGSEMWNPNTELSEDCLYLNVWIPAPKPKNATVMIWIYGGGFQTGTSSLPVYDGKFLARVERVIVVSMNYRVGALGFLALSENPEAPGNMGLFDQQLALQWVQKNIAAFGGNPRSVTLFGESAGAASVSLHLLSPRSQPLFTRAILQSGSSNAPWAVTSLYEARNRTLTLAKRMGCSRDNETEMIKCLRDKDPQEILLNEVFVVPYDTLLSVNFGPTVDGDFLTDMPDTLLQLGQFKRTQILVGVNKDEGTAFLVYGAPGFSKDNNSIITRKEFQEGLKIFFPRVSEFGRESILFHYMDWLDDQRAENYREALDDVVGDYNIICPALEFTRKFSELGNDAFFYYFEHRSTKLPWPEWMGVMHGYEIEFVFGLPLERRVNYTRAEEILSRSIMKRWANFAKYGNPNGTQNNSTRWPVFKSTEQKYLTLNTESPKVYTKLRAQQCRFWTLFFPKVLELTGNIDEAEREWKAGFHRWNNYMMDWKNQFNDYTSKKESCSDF

CCCCOP(=O)(OCCCC)Oc1ccccc1Cl [DB2ClPP, Di-n-butyl 2-chlorophenyl phosphate]
activity at 100 µM [1]: 97.6 ± 0.029%
uptake, fg/cell (human umbilical cells; Neurons, 0 hours): 78.85 ± 8.04 fg/cell
uptake, fg/cell (human umbilical cells; Neurons, 24 hours): 820.52 ± 82.32 fg/cell
uptake, fg/cell (human umbilical cells; Undifferentiated cells, 0 hours): 114.72 ± 37.93 fg/cell
uptake, fg/cell (human umbilical cells; Undifferentiated cells, 24 hours): 795.89 ± 202.41 fg/cell
effect on trypsin activity (FIG. 3) (trypsin): none of the above mentioned enzymes were affected
fg DB2Cl-PP/cell (±SEM) ([2]; 0 hours): 2.55 ± 0.011 fg/cell
fg DB2Cl-PP/cell (±SEM) ([2]; 24 hours): 11.57 ± 1.02 fg/cell
fg DB2Cl-PP/cell (±SEM) ([2]; 48 hours): 13.62 ± 0.003 fg/cell
amount of DB2ClPP in brain sample [3]: 220 ng and 125 ng
effect on S6K2 activity (FIG. 5) (S6K2): none of the above mentioned enzymes were affected
effect on mortality of porcine umbilical stem cells (FIG. 7) [4]: did not have any significant effect on mortality
type of inhibition from covalent modification of active site serine peptide (FIG. 12) (BuChase): likely an irreversible inhibitor
